≈ marks a conversion by molar mass, not a printed value.
Tests used:
Assay type in all cases: cell-based, Escherichia coli
[1] = test system: EKO-35 strains with integrated RND tripartite efflux pumps (AcrB, AcrEF, AcrD, and MdtEF) with pGDP2:emrE or empty pGDP-2; assay: Efflux pump interplay MIC profiling (pGDP2:emrE); conditions: for Interplay effect / MIC / Fold Change from EKO-35: Pore −
[2] = test system: EKO-35-Pore strains with integrated AcrB, AcrEF, AcrD, MdtEF with pGDP2:emrE or empty pGDP-2; assay: Efflux pump interplay MIC profiling (pGDP2:emrE), porinated; conditions: for Interplay effect / MIC / Fold Change from EKO-35: Pore +
Description: This plasmid enables single-copy genomic integration of a selected gene through integration into the nonessential araC gene within the arabinose operon (Cox, G. et al., 2022). All E. coli genes were amplified from E. coli BW25113 genomic DNA, and mexCD was amplified from P. aeruginosa PAO1, using a high-fidelity polymerase, followed by ligation into pINT2. Successful clones were verified using PCR (Primers: pLac-Fwd/pINT-Rev, Table 4) and confirmed via Sanger sequencing at The Centre for Applied Genomics (TCAG) (The Hospital for Sick Children) and the AAC (University of Guelph). For the interplay studies, this process was repeated using the pGDP2 plasmid (Cox, G. et al., 2022).
To enable comparison between efflux production in different genetic backgrounds, each efflux pump-encoding gene was also integrated into the genome of the wild-type BW25113 strain, the single gene deletion mutant from the Keio Collection, and EKO-35. Strains of interest were propagated on LB agar at 37° C. Cell inoculum was prepared using the colony resuspension method and applied to a 96-well well plate (VWR) in technical duplicate, and the minimum inhibitory concentrations were determined according to Clinical & Laboratory Standards Institute (CLSI) protocols in MHB II (Patel J. B. et al, 2015). The plates were incubated for 18 h (Multitron Shaker, Infors HT) at 37° C. with aeration at 900 rpm. The plates were equilibrated to room temperature before the OD600 nm was measured using a BioTek Synergy H1 microplate reader. For interplay profiling, blank subtracted OD600 nm values >0.1 were considered to represent growth.
To investigate, the EKO-35-Pore strains were profiled using the same approach.

[3] = test system: EKO-35 porinated strain expressing acrF (AcrEF); assay: Checkerboard synergy (FICI), porinated strain
How it was run: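 Inocula prepared from resuspended colonies were exposed to PAβN or NMP combined with antibiotics in MHB II checkerboards. Growth was scored by OD600 to define MICs. FICI then classified the interaction, with values under 0.5 counted as synergistic.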

[4] = strain EKO-35 acrEF Pore, NMP + antibiotic

SMILES: C[n+]1c2cc(N)ccc2cc2ccc(N)cc21.[Cl-] [acriflavine]
- interplay of EmrE with tripartite efflux pumps on resistance ([1]; EKO-35, AcrB, AcrEF, AcrD, MdtEF combined with pEmrE): multiplicative effects
- Interplay effect ([1]; acrB with pEmrE): Multiplicative
- Interplay effect ([1]; acrD with pEmrE): Multiplicative
- Interplay effect ([1]; acrEF with pEmrE): Multiplicative
- Interplay effect ([1]; mdtEF with pEmrE): Multiplicative
- MIC ([1]; strain EKO-35): 0.098 µg/mL
- Fold Change from EKO-35 ([1]; strain EKO-35 pEmrE): 8
- MIC ([1]; strain EKO-35 pEmrE): 0.781 µg/mL
- Fold Change from EKO-35 ([1]; strain acrB pEmrE): 256
- MIC ([1]; strain acrB pEmrE): 25 µg/mL
- Fold Change from EKO-35 ([1]; strain acrB): 16
- MIC ([1]; strain acrB): 1.56 µg/mL
- Fold Change from EKO-35 ([1]; strain acrD pEmrE): 16
- MIC ([1]; strain acrD pEmrE): 1.56 µg/mL
- Fold Change from EKO-35 ([1]; strain acrD): 1
- MIC ([1]; strain acrD): 0.098 µg/mL
- Fold Change from EKO-35 ([1]; strain acrEF pEmrE): 128
- MIC ([1]; strain acrEF pEmrE): 12.5 µg/mL
- Fold Change from EKO-35 ([1]; strain acrEF): 8
- MIC ([1]; strain acrEF): 0.781 µg/mL
- Fold Change from EKO-35 ([1]; strain mdtEF pEmrE): 16
- MIC ([1]; strain mdtEF pEmrE): 1.56 µg/mL
- Fold Change from EKO-35 ([1]; strain mdtEF): 1
- MIC ([1]; strain mdtEF): 0.098 µg/mL
- resistance conferred by AcrD alone or in combination with EmrE ([2]; EKO-35-Pore): did not increase resistance
- interplay of EmrE with tripartite efflux pumps on resistance ([2]; EKO-35-Pore, AcrB, AcrEF, AcrD, MdtEF combined with pEmrE): Interplay was maintained
- interplay of EmrE with AcrD on resistance ([2]; EKO-35-Pore, AcrD with EmrE): multiplicative effect was lost
- Interplay effect ([2]; acrB with pEmrE): Multiplicative
- Interplay effect ([2]; acrEF with pEmrE): Multiplicative
- Interplay effect ([2]; mdtEF with pEmrE): Multiplicative
- MIC ([2]; strain EKO-35): 0.049 µg/mL
- Fold Change from EKO-35 ([2]; strain EKO-35 pEmrE): 16
- MIC ([2]; strain EKO-35 pEmrE): 0.781 µg/mL
- Fold Change from EKO-35 ([2]; strain acrB pEmrE): 256
- MIC ([2]; strain acrB pEmrE): 12.5 µg/mL
- Fold Change from EKO-35 ([2]; strain acrB): 16
- MIC ([2]; strain acrB): 0.781 µg/mL
- Fold Change from EKO-35 ([2]; strain acrD pEmrE): 16
- MIC ([2]; strain acrD pEmrE): 0.781 µg/mL
- Fold Change from EKO-35 ([2]; strain acrD): 2
- MIC ([2]; strain acrD): 0.098 µg/mL
- Fold Change from EKO-35 ([2]; strain acrEF pEmrE): 128
- MIC ([2]; strain acrEF pEmrE): 6.25 µg/mL
- Fold Change from EKO-35 ([2]; strain acrEF): 16
- MIC ([2]; strain acrEF): 0.781 µg/mL
- Fold Change from EKO-35 ([2]; strain mdtEF pEmrE): 32
- MIC ([2]; strain mdtEF pEmrE): 1.56 µg/mL
- Fold Change from EKO-35 ([2]; strain mdtEF): 4
- MIC ([2]; strain mdtEF): 0.195 µg/mL

SMILES: CC[n+]1c(-c2ccccc2)c2cc(N)ccc2c2ccc(N)cc21 [ethidium bromide]
- FICI ([3]; EKO-35 acrEF Pore, NMP + antibiotic): 0.500
- Effect [3, 4]: Synergistic (Synergy (FICI ≤0.5))
- FICI [3, 4]: 0.500
- MICb Alone ([3]; strain EKO-35 acrEF Pore, antibiotic alone): 2 µg/mL
- MICb Combined ([3]; strain EKO-35 acrEF Pore, antibiotic in combination with NMP): 0.5 µg/mL
- MIC ([1]; strain EKO-35): 0.122 µg/mL
- Fold Change from EKO-35 ([1]; strain EKO-35 pEmrE): 4
- MIC ([1]; strain EKO-35 pEmrE): 0.488 µg/mL
- Fold Change from EKO-35 ([1]; strain acrB pEmrE): 256
- MIC ([1]; strain acrB pEmrE): 31.2 µg/mL
- Fold Change from EKO-35 ([1]; strain acrB): 64
- MIC ([1]; strain acrB): 7.81 µg/mL
- Fold Change from EKO-35 ([1]; strain acrD pEmrE): 16
- MIC ([1]; strain acrD pEmrE): 1.95 µg/mL
- Fold Change from EKO-35 ([1]; strain acrD): 2
- MIC ([1]; strain acrD): 0.244 µg/mL
- Fold Change from EKO-35 ([1]; strain acrEF pEmrE): 64
- MIC ([1]; strain acrEF pEmrE): 7.81 µg/mL
- Fold Change from EKO-35 ([1]; strain acrEF): 16
- MIC ([1]; strain acrEF): 1.95 µg/mL
- Fold Change from EKO-35 ([1]; strain mdtEF pEmrE): 32
- MIC ([1]; strain mdtEF pEmrE): 3.91 µg/mL
- Fold Change from EKO-35 ([1]; strain mdtEF): 8
- MIC ([1]; strain mdtEF): 0.977 µg/mL
- MIC ([2]; strain EKO-35): 0.061 µg/mL
- Fold Change from EKO-35 ([2]; strain EKO-35 pEmrE): 4
- Fold Change from EKO-35 ([2]; strain acrB pEmrE): 256
- MIC ([2]; strain acrB pEmrE): 15.6 µg/mL
- Fold Change from EKO-35 ([2]; strain acrB): 64
- MIC ([2]; strain acrB): 3.91 µg/mL
- Fold Change from EKO-35 ([2]; strain acrD pEmrE): 8
- Fold Change from EKO-35 ([2]; strain acrD): 1
- MIC ([2]; strain acrD): 0.061 µg/mL
- Fold Change from EKO-35 ([2]; strain acrEF pEmrE): 64
- MIC ([2]; strain acrEF pEmrE): 3.91 µg/mL
- Fold Change from EKO-35 ([2]; strain acrEF): 16
- Fold Change from EKO-35 ([2]; strain mdtEF pEmrE): 32
- MIC ([2]; strain mdtEF pEmrE): 1.95 µg/mL
- Fold Change from EKO-35 ([2]; strain mdtEF): 8

SMILES: CN(C)c1ccc(O)c2c1C[C@H]1C[C@H]3[C@H](N(C)C)C(O)=C(C(N)=O)C(=O)[C@@]3(O)C(O)=C1C2=O [minocycline]
- MIC ([1]; strain EKO-35): 1.25 µg/mL (≈ 2.73 µM)
- Fold Change from EKO-35 ([1]; strain EKO-35 pEmrE): 1
- MIC ([1]; strain EKO-35 pEmrE): 1.25 µg/mL (≈ 2.73 µM)
- Fold Change from EKO-35 ([1]; strain acrB pEmrE): 4
- MIC ([1]; strain acrB pEmrE): 5 µg/mL (≈ 10.9 µM)
- Fold Change from EKO-35 ([1]; strain acrB): 4
- MIC ([1]; strain acrB): 5 µg/mL (≈ 10.9 µM)
- Fold Change from EKO-35 ([1]; strain acrD pEmrE): 2
- MIC ([1]; strain acrD pEmrE): 2.5 µg/mL (≈ 5.46 µM)
- Fold Change from EKO-35 ([1]; strain acrD): 2
- MIC ([1]; strain acrD): 2.5 µg/mL (≈ 5.46 µM)
- Fold Change from EKO-35 ([1]; strain acrEF pEmrE): 4
- MIC ([1]; strain acrEF pEmrE): 5 µg/mL (≈ 10.9 µM)
- Fold Change from EKO-35 ([1]; strain acrEF): 2
- MIC ([1]; strain acrEF): 2.5 µg/mL (≈ 5.46 µM)
- Fold Change from EKO-35 ([1]; strain mdtEF pEmrE): 2
- MIC ([1]; strain mdtEF pEmrE): 2.5 µg/mL (≈ 5.46 µM)
- Fold Change from EKO-35 ([1]; strain mdtEF): 2
- MIC ([1]; strain mdtEF): 2.5 µg/mL (≈ 5.46 µM)
- MIC ([2]; strain EKO-35): 0.63 µg/mL
- Fold Change from EKO-35 ([2]; strain EKO-35 pEmrE): 1
- MIC ([2]; strain EKO-35 pEmrE): 0.63 µg/mL
- Fold Change from EKO-35 ([2]; strain acrB pEmrE): 4
- MIC ([2]; strain acrB pEmrE): 2.5 µg/mL
- Fold Change from EKO-35 ([2]; strain acrB): 4
- MIC ([2]; strain acrB): 2.5 µg/mL
- Fold Change from EKO-35 ([2]; strain acrD pEmrE): 2
- Fold Change from EKO-35 ([2]; strain acrD): 2
- Fold Change from EKO-35 ([2]; strain acrEF pEmrE): 2
- Fold Change from EKO-35 ([2]; strain acrEF): 2
- Fold Change from EKO-35 ([2]; strain mdtEF pEmrE): 2
- Fold Change from EKO-35 ([2]; strain mdtEF): 2

From patent US20230407243A1, “GENETIC PLATFORM TO INVESTIGATE THE FUNCTIONS OF BACTERIAL DRUG EFFLUX PUMPS” (priority 2022, published 2023)
